The results in this text go back to ChEMBL document CHEMBL5055678, “Structure-based drug design of novel and highly potent pyruvate dehydrogenase kinase inhibitors” (Bioorg Med Chem, 2021).

Structures are written as SMILES.

Experiment [1] has as its target T1, [Pyruvate dehydrogenase (acetyl-transferring)] kinase isozyme 4, mitochondrial (Homo sapiens, UniProt Q16654). Nature of the experiment: Inhibition of human recombinant PDHK4 co-complexed with porcine PDH using sodium pyruvate, coenzymeA and NAD as substrates preincubated with enzyme complex for 45 mins followed by substrates addition and further incubated for 90 mins in presence of ATP at Km concentration by spectrophotometric assay.
Target sequence in this assay (Q16654 whole entry): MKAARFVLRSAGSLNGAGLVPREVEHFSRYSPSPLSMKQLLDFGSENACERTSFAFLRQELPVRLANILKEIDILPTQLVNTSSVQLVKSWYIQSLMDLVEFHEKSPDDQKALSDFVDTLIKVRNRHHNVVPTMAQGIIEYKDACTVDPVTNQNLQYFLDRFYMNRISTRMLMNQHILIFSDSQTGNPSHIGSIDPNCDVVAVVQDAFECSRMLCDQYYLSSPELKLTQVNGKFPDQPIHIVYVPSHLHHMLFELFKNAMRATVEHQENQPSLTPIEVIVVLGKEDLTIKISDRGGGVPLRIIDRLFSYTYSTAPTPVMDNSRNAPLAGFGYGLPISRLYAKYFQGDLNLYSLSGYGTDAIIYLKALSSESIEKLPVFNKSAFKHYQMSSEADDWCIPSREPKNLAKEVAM

Experiment [2] concerns the target [Pyruvate dehydrogenase (acetyl-transferring)] kinase isozyme 2, mitochondrial (Homo sapiens, UniProt Q15119). Nature of the experiment: Inhibition of human recombinant PDHK2 co-complexed with porcine PDH using sodium pyruvate, coenzymeA and NAD as substrates preincubated with enzyme complex for 45 mins followed by substrates addition and further incubated for 90 mins in presence of ATP at Km concentration by spectrophotometric assay.

The target in experiment [3] is T2, Branched-chain alpha-ketoacid dehydrogenase kinase (Homo sapiens, UniProt O14874). Put plainly: Inhibition of human recombinant BCKDK incubated for 60 mins in presence of ATP by ADP-Glo reagent based luminescent assay.
Experiment [4] concerns the target T2, Branched-chain alpha-ketoacid dehydrogenase kinase. Put plainly: Inhibition of human recombinant BCKDK at >100 uM incubated for 60 mins in presence of ATP by ADP-Glo reagent based luminescent assay relative to control.
The target in experiment [5] is T1, [Pyruvate dehydrogenase (acetyl-transferring)] kinase isozyme 4, mitochondrial. Put plainly: Inhibition of human recombinant PDHK4 co-complexed with porcine PDH at 30 uM using sodium pyruvate, coenzymeA and NAD as substrates preincubated with enzyme complex for 45 mins followed by substrates addition and further incubated for 90 mins in presence of ATP at Km concentration by spectrophotometric assay relative to control. The following applies: time 135.0 min.
Target sequence in this assay (Q16654 whole entry, looked up): as the sequence (Q16654 whole entry) above

The target in experiment [6] is [Pyruvate dehydrogenase (acetyl-transferring)] kinase isozyme 1, mitochondrial (Homo sapiens, UniProt Q15118). Put plainly: Inhibition of human recombinant PDHK1 co-complexed with porcine PDH using sodium pyruvate, coenzymeA and NAD as substrates preincubated with enzyme complex for 45 mins followed by substrates addition and further incubated for 90 mins by spectrophotometric assay.
Sequence of [Pyruvate dehydrogenase (acetyl-transferring)] kinase isozyme 1, mitochondrial (Q15118 whole entry): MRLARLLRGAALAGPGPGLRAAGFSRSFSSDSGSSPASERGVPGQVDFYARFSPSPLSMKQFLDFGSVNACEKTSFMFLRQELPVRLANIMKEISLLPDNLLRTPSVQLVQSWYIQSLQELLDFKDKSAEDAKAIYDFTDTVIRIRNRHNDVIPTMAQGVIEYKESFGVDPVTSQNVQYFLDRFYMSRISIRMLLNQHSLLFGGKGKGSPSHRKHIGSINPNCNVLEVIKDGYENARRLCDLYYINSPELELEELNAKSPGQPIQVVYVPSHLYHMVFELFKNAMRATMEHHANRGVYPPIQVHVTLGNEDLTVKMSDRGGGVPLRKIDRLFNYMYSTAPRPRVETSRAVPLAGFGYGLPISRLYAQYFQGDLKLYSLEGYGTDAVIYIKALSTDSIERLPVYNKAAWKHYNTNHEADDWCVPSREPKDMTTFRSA

Take `Cc1ccc2c(n1)[nH]c1c(C3CC3)cccc12`: the results for the IC50 in experiment [1] and in experiment [2] were 11900 nM and 2030 nM, respectively.

With `Cc1nc2[nH]c3c(C4CC4)cccc3c2cc1-c1nnc(C(C)C)o1`, the IC50 in experiment [1] turned out to be 592 nM; in experiment [2], 130 nM.

In the case of `Cc1nc(N2CCCC2)c2c(n1)[nH]c1c(C3CC3)cccc12`, the concentration for half-maximal inhibition (IC50) in experiment [1] was found to be 10300 nM; in experiment [2], 2410 nM.

As for `Cc1nc2[nH]c3c(C4CC4)cccc3c2cc1-c1nnc(C(CC(=O)NCc2ccccc2)C(C)C)o1` (stereo not drawn), the results for the IC50 in experiment [3], in experiment [1] and in experiment [2] were above 100000 nM, 32.9 nM and 6 nM, respectively. The inhibition in experiment [4] was found to be 18%.

Take `Cc1nc2[nH]c3c(C4CC4)cccc3c2cc1-c1ccccc1`: the IC50 in experiment [1] was found to be 7490 nM; in experiment [2] it was 5330 nM.

For `Cc1nc2[nH]c3c(C4CC4)cccc3c2cc1-c1ccccn1`, the figures for the IC50 in experiment [1] and in experiment [2] were 2980 nM and 1510 nM, respectively.

As for `Cc1nc(N2CCC[C@@H]2CO)c2c(n1)[nH]c1c(C3CC3)cccc12`, the IC50 in experiment [1] was above 30000 nM; in experiment [2], 8520 nM. Besides, the inhibition in experiment [5] was determined as 21%.

With `CCc1nnc(-c2cc3c(nc2C)[nH]c2c(C4CC4)cccc23)s1`, the IC50 in experiment [1] worked out at 6620 nM; in experiment [2], 1490 nM.

Take `Cc1nc2[nH]c3c(C4CC4)cccc3c2cc1-c1nnc(C(NC(=O)CCc2ccccc2)C(C)C)o1` (stereo not drawn): the IC50 was above 100000 nM in experiment [3], 24.1 nM in experiment [1] and 4.2 nM in experiment [2]. Further, the inhibition in experiment [4] turned out to be 3%.

With `CCCc1nnc(-c2cc3c(nc2C)[nH]c2c(C4CC4)cccc23)o1`, the figures for the IC50 in experiment [1] and in experiment [2] were 292 nM and 91 nM, respectively.

As to `Cc1nnc(-c2cc3c(nc2C)[nH]c2c(C4CC4)cccc23)o1`, the IC50 in experiment [1] was determined as 1510 nM; in experiment [2], 490 nM.

Take `CC[C@@H]1C[C@H](c2ccc(C(=O)O)[nH]2)CN1c1nc(C)nc2[nH]c3c(C4CC4)cccc3c12`: the 50% inhibitory concentration (IC50) was determined as 40.6 nM in experiment [1] and 9.2 nM in experiment [2].

For `Cc1nc(N2C[C@H](Cc3ccccc3)C[C@H]2CO)c2c(n1)[nH]c1c(C3CC3)cccc12`, the IC50 stood at 1120 nM in experiment [1] and 73 nM in experiment [2].

As to `Cc1ncc2c(n1)[nH]c1c(C3CC3)cccc12`, the IC50 is above 300000 nM in experiment [3], 5870 nM in experiment [6] and 710 nM in experiment [2].

For `COC(=O)c1cc2c(nc1C)[nH]c1c(C3CC3)cccc12`, the IC50 is 1540 nM in experiment [1] and 210 nM in experiment [2].

Regarding `Cc1nc2[nH]c3c(C4CC4)cccc3c2cc1-c1nnc(CC(C)C)o1`, the results for the IC50 in experiment [1] and in experiment [2] were 462 nM and 56 nM, respectively.

In the case of `Cc1cnc(Cl)nc1-c1ccc(N(Cc2ccccc2)C(=O)c2ccc(O)cc2O)cc1`, the IC50 in experiment [1] turned out to be 350 nM; in experiment [2], 35 nM.

For the molecule `Cc1nc2[nH]c3c(C4CC4)cccc3c2cc1-c1nnc(C(C)C(C)C)o1` (stereo not drawn), the results for the IC50 in experiment [1] and in experiment [2] were 494 nM and 87 nM, respectively.

In the case of `Cc1nc(N2C[C@@H](c3ccc(C(=O)O)[nH]3)C[C@H]2CO)c2c(n1)[nH]c1c(C3CC3)cccc12`, the IC50 in experiment [1] was found to be 12.2 nM; in experiment [2], 5.1 nM.

As for `Cc1nc(N2C[C@H](c3ccccc3)C[C@H]2CO)c2c(n1)[nH]c1c(C3CC3)cccc12`, the IC50 in experiment [1] amounted to 7700 nM; in experiment [2], 1010 nM.

As to `Cc1nc(N2CCC[C@H]2CO)c2c(n1)[nH]c1c(C3CC3)cccc12`, the IC50 in experiment [1] came out at 4530 nM; in experiment [2], 352 nM.

Consider `Cc1nc(N2C[C@@](Cc3ccccc3)(C(N)=O)C[C@H]2CO)c2c(n1)[nH]c1c(C3CC3)cccc12`, for which the IC50 in experiment [1] was 260 nM; in experiment [2], 4.5 nM.

Take `CCc1nnc(-c2cc3c(nc2C)[nH]c2c(C4CC4)cccc23)o1`: the IC50 in experiment [1] is 2120 nM; in experiment [2], 190 nM.

Regarding `Cc1nc2[nH]c3c(C4CC4)cccc3c2cc1-c1nnc([C@@H](CC(=O)N[C@H](C)c2ccccc2)C(C)C)o1`, the results for the IC50 in experiment [1] and in experiment [2] were 61.5 nM and 17.1 nM, respectively.

`CNC(=O)c1cc2c(nc1C)[nH]c1c(C3CC3)cccc12`: the IC50 is above 30000 nM in experiment [1] and 5510 nM in experiment [2]. Further, the inhibition in experiment [5] stood at 35%.

As for `CCC1CCCN1c1nc(C)nc2[nH]c3c(C4CC4)cccc3c12` (stereo not drawn), the IC50 in experiment [1] was found to be 8460 nM; in experiment [2] it was 758 nM.

On to `Cc1nc(N2C[C@@H](c3ccc(C(N)=O)[nH]3)C[C@H]2CO)c2c(n1)[nH]c1c(C3CC3)cccc12`, for which the IC50 turned out to be 17.8 nM in experiment [1] and 5.5 nM in experiment [2].

`Cc1nc(N2C[C@](CO)(Cc3ccccc3)C[C@H]2CO)c2c(n1)[nH]c1c(C3CC3)cccc12`: the IC50 in experiment [1] is 292 nM; in experiment [2] it was 14.6 nM.
